Results published in patent US20260083864A1, “CONTRAST AGENTS FOR USE IN DIAGNOSTIC COMPUTED TOMOGRAPHY IMAGING” (Bayer Aktiengesellschaft, priority 2022, published 2026).

Legend:
[1] = Partition coefficient (log P butanol/buffer); type: physicochemical; settings: 1-butanol / 50 mM Tris-HCl, pH 7.4, room temperature
[2] = Relaxivity measurements at 1.41 T in human plasma; type: physicochemical; settings: 37° C., normalized to Gd
Summary of the method: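 T1 determined by inversion recovery (8 inversion-time steps) and T2 by CPMG sequence, both with relaxation delay ≥5×T1. Each relaxivity used three Gd concentrations between 0.05 and 2 mM. Relaxivities were derived from relaxation rates measured in water and plasma.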

[3] = Relaxivity measurements at 1.41 T in water; type: physicochemical; settings: 37° C., normalized to Gd
Summary of the method: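 T1 by inversion recovery and T2 by CPMG at 1.41 T (60 MHz), 37° C, relaxation delay ≥5×T1. Three Gd concentrations between 0.05 and 2 mM; relaxivities derived from measured relaxation rates in water.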

[4] = Water solubility in aqueous buffer; settings: aqueous buffer 10 mM Tris-HCl, pH 7.4, 20° C.
Protocol: The solid compounds were added stepwise to the buffer solution. More substance is added once all the suspended material is dissolved until an equilibrium between undissolved and dissolved substance is reached. The suspension was mixed using a shaker (Heidolph Reax 2000) and treated 5 min in an ultrasound bath (Bandelin, Sonorex Super RK255H).

[5] = Complex stability (transmetallation) against Zn2+ in phosphate buffer; settings: 72 hours, 2.5 mM Zn^2+, 26 mM phosphate buffer, 37° C., pH 7.4
Text: If test compounds are instable under these conditions, transmetallation during this test would lead to the formation of the Zn^2+ complex of the test item, while Gd^3+ is released and precipitated as highly insoluble GdPO4.

[6] = tested on: freshly isolated rat hepatocytes; assay: Uptake into freshly isolated rat hepatocytes; settings: for Uptake rat hepatocytes: 100 μmol Gd/L, 10 min, 37° C., relative to RC1 (Gd-EOB-DTPA); for Inhibition Rifampicine: rat hepatocyte uptake, test item and Rifampicine 1:1, each 100 μM
Protocol: After incubation the adherent hepatocytes were washed once with 37° C. Hepes carbonate transport buffer (500 μL/well). The test items and RC1 were prepared from stock solutions (180 to 500 mM concentration) in Hepes carbonate transport buffer at pH 7.4 to reach a final concentration of 100 μmol Gd/L. The specific uptake of the test item or RC1 into rat hepatocytes via OATP1B1 and OATP1B3 was challenged using a known OATP1B1/1B3 inhibitor (Rifampicine, Fa. Sigma R3501, test item and inhibitor 1:1 each 100 μM final concentration). The prepared rat hepatocyte plates were incubated with test solutions (500 μL/well) at 37° C. for 10 min using a thermoshaker (Fa. Grant Bio, PHMP). Triplicates were performed for each test item. After incubating the cells were washed once with cold PBS buffer (Fa. Gibco, Dulbeccos PBS (+)). After washing the intact hepatocytes were lysed by addition of 500 μL cold 0.01% Triton-X 100 in Millipore water for 1 h. […] As a reference standard RC1 is used in the same well plate. The hepatocyte uptake of the test compound is calculated relative to RC1 (resulting in the unit % of RC1).

OATP1B3 = target: T1, OATP1B3 (Homo sapiens, UniProt Q9NPD5); assay: Uptake into stable transfected OATP1B3 HEK 293 cells; type: cell-based; settings: for Uptake into OATP1B3-HEK 293 cells: 40 min incubation, relative to RC1 (Gd-EOB-DTPA); for Inhibition Rifampicine: uptake into OATP1B3-HEK 293 cells
T1 sequence (Q9NPD5 1-702): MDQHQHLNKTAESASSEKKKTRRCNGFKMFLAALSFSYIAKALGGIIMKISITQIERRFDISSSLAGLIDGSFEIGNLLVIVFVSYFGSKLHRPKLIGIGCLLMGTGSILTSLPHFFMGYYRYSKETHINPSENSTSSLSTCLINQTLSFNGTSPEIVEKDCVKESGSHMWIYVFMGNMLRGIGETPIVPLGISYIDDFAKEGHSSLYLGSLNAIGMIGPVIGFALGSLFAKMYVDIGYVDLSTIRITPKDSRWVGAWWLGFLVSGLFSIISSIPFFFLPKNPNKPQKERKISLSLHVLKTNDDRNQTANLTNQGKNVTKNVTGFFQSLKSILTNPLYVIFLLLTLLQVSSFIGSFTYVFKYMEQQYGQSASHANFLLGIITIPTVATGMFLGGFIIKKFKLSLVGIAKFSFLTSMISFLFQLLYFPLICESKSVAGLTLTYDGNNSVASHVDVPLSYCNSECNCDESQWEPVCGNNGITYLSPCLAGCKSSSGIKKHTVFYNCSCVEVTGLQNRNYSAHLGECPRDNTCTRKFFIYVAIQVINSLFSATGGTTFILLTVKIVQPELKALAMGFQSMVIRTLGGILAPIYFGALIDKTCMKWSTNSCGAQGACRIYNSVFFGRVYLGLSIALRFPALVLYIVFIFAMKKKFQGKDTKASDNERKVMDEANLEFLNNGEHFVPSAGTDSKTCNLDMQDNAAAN
Summary of the method: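 HEK 293 cells stably transfected with human OATP1B3 were incubated for 40 min with test items at 100 μM final in transport buffer, in triplicate, then washed with cold PBS. Gadoxetate (Gd-EOB-DTPA) served as the reference standard on the same plate.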

OATP1B1 = target: T2, OATP1B1 (Homo sapiens, UniProt Q9Y6L6); assay: Uptake into stable transfected OATP1B1 HEK 293 cells; type: cell-based; settings: for Uptake into OATP1B1-HEK 293 cells: 40 min incubation, relative to RC1 (Gd-EOB-DTPA); for Inhibition Rifampicine: uptake into OATP1B1-HEK 293 cells
T2 sequence (Q9Y6L6 1-691): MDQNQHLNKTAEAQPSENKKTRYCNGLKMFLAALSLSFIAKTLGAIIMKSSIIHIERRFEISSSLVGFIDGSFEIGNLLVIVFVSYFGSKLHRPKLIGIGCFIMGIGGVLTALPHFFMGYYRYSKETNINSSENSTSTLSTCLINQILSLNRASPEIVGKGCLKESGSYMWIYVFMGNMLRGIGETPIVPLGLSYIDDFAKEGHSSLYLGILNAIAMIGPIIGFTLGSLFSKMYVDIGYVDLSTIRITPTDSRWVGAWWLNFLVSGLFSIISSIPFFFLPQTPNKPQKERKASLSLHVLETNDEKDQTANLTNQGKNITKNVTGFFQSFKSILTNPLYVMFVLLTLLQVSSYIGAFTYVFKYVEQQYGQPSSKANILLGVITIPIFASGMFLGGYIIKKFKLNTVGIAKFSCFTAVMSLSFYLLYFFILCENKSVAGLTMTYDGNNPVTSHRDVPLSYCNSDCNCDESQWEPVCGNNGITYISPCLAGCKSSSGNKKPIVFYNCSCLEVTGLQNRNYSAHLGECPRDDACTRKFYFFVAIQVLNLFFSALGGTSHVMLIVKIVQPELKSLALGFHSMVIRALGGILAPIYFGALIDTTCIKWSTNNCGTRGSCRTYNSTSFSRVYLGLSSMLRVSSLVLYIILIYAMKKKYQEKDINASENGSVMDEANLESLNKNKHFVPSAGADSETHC
Summary of the method: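 Uptake measured in triplicate after a 40 min, unshaken exposure of OATP1B1-expressing HEK293 cells to 100 µM (final) compound in transport buffer. Cold PBS wash stopped uptake; Gd-EOB-DTPA served as reference standard within each plate.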

Row | SMILES | Log P (partition coefficient butanol/buffer) [1] | r1 human plasma [2] [L/mmol/s] | r1 water [3] [L/mmol/s] | Solubility [4] [mM] | Transmetallation stability [5] [%] | Uptake rat hepatocytes [6] | Inhibition Rifampicine [6] [% inhibition] | Uptake into OATP1B3-HEK 293 cells (OATP1B3) | Inhibition Rifampicine (OATP1B3) [% inhibition] | Uptake into OATP1B1-HEK 293 cells (OATP1B1) | Inhibition Rifampicine (OATP1B1) [% inhibition]
1 | CCOCCOCCOc1ccc(CC(C(=O)O)N2CCN(CC(=O)[O-])CCN(C(C)C(=O)[O-])CCN(CC(=O)[O-])CC2)cc1.[Gd+3] (single isomer, unassigned) [Example 6, gadolinium 2-[7-(1-carboxy-2-{4-[2-(2-ethoxyethoxy)ethoxy]phenyl}ethyl)-4,10-bis(carboxylatomethyl)-1,4,7,10-tetraazacyclododecan-1-yl]propanoate] | −1.44 | 6.6 | 4.3 | >217 | 102 | 62 % of RC1 | 96 |  |  |  | 
2 | CCOCCOc1ccc(CC(C(=O)O)N2CCN(CC(=O)[O-])CCN(C(CC)C(=O)[O-])CCN(CC(=O)[O-])CC2)cc1.[Gd+3] (single isomer, unassigned) [Example 7, gadolinium 2-[7-{1-carboxy-2-[4-(2-ethoxyethoxy)phenyl]ethyl}-4,10-bis(carboxylatomethyl)-1,4,7,10-tetraazacyclododecan-1-yl]butanoate] | −1.09 | 7.4 | 4.5 | >243 | 101 | 89 % of RC1 | 99 | 76 % of RC1 | 99 | 217 % of RC1 | 91
3 | CCOCCOc1ccc(CC(C(=O)O)N2CCN(CC(=O)[O-])CCN(C(CC)C(=O)[O-])CCN(CC(=O)[O-])CC2)cc1.[Gd+3] (single isomer, unassigned) [Example 8, gadolinium 2-[7-{1-carboxy-2-[4-(2-ethoxyethoxy)phenyl]ethyl}-4,10-bis(carboxylatomethyl)-1,4,7,10-tetraazacyclododecan-1-yl]butanoate] | −1.04 | 7.2 | 4.5 | 117 | 102 | 83 % of RC1 | 98 | 90 % of RC1 | 99 | 271 % of RC1 | 90
4 | CCOCCOCCOc1ccc(CCCC(C(=O)O)N2CCN(C(CO)C(=O)[O-])CCN(C(CO)C(=O)[O-])CCN(C(CO)C(=O)[O-])CC2)cc1.[Gd+3] (centres unmarked) [Example 17, gadolinium-2,2′,2″-{10-[1-carboxy-4-{4-[2-(2-ethoxyethoxy)ethoxy]phenyl}butyl]-1,4,7,10-tetraazacyclododecane-1,4,7-triyl}tris(3-hydroxypropanoate)] |  | 10.1 | 5.3 | >217 | 98 | 71 % of RC1 | 91 |  | 98 |  | 88
5 | CCOCCOCCOc1ccc(CC(C(=O)O)N2CCN(C(CO)C(=O)[O-])CCN(C(CO)C(=O)[O-])CCN(C(CO)C(=O)[O-])CC2)cc1.[Gd+3] (centres unmarked) [Example 22, gadolinium 2,2′,2″-{10-[1-carboxy-2-{4-[2-(2-ethoxyethoxy)ethoxy]phenyl}ethyl]-1,4,7,10-tetraazacyclododecane-1,4,7-triyl}tris(3-hydroxypropanoate)] |  | 7.7 | 5.4 | >308 | 96 | 41 % of RC1 | 83 | 46 % of RC1 | 96 | 77 % of RC1 | 51
6 | CCOCCOCCOCCOc1ccc(CC(C(=O)O)N2CCN(CC(=O)[O-])CCN(C(CO)C(=O)[O-])CCN(CC(=O)[O-])CC2)cc1.[Gd+3] (centres unmarked) [Example 42, gadolinium-2-{7-[1-carboxy-2-(4-{2-[2-(2-ethoxyethoxy)ethoxy]ethoxy}phenyl)ethyl]-4,10-bis(carboxylatomethyl)-1,4,7,10-tetraazacyclododecan-1-yl}-3-hydroxypropanoate] | −1.60 | 7.2 | 5.0 | >81 |  | 44 % of RC1 | 95 | 20 % of RC1 | 91 | 89 % of RC1 | 62
7 | O=C([O-])CN1CCN(CC(=O)[O-])CCN([C@H](Cc2ccc(OCC(F)(F)F)cc2)C(=O)O)CCN(CC(=O)[O-])CC1.[Gd+3] [Example 47, gadolinium 2,2′,2″-(10-{(1R)-1-carboxy-2-[4-(2,2,2-trifluoroethoxy)phenyl]ethyl}-1,4,7,10-tetraazacyclododecane-1,4,7-triyl)triacetate] | −0.77 | 7.8 | 3.7 | >229 |  | 55 % of RC1 | 82 | 19 % of RC1 | 90 | 13 % of RC1 | 93
8 | CCCOc1ccc(CC(C(=O)O)N2CCN(CC(=O)[O-])CCN(CC(=O)[O-])CCN(CC(=O)[O-])CC2)cc1.[Gd+3] (centres unmarked) [Example 48, gadolinium 2,2′,2″-{10-[1-carboxy-2-(4-propoxyphenyl)ethyl]-1,4,7,10-tetraazacyclododecane-1,4,7-triyl}triacetate] |  | 9.3 | 4.0 | 16 | 99 | 77 % of RC1 | 98 | 11 % of RC1 | 81 | 240 % of RC1 | 92
